Key:
C8 cells = experiment: Apoptosis / cell survival assay in low serum; format: cell-based, mouse; details: IPTG added by itself
Method: (§1) In these experiments, conditioned media were prepared by plating 10^6 p12-9 cells per 15 cm plate in the presence of DMEM/10% FCS. The next day, IPTG was added to a final concentration of 50 μM, and this media was replaced three days later with DMEM supplemented with 0.5% FCS and 50 μM IPTG. Two days later (days 3-5 of IPTG treatment), this conditioned media was collected and stored at 4° C. up to 15 days before use. Control media were prepared by adding IPTG-free DMEM/0.5% FCS to untreated cells grown to the same density as IPTG-treated cells and collecting the media two days thereafter.
The effect of this conditioned media on apoptosis was also determined. These experiments used a mouse embryo fibroblast line C8, immortalized by E1A. […] Apoptosis was analyzed by plating 3×10^5 C8 cells per 6-cm plate, and replacing the media on the following day with fresh media supplemented with 0.4% serum or with conditioned media (no fresh serum added). DNA content analysis and DAPI staining were carried out after 24 hrs and 48 hrs, and relative cell numbers were measured by methylene blue staining (Perry et al., 1992, Mutai. Res. 276: 189-197) after 48 hrs in low-serum media.

p21 = p21 induction in p21-9 cells by IPTG (p21 ELISA); format: cell-based, human
Method: p21 expression from the LNp21CO3 vector in p21-9 cells was induced by culturing the cells in DMEM medium containing 10% fetal calf serum (Hyclone, Logan, Utah) and IPTG. […] Upon removing the cells from IPTG-containing media, p21 expression fell about as rapidly as it had risen, returning to pre-induction levels at about 24 hours after IPTG was removed, (FIG. 2B).
(§2) Colony assays for recovery from IPTG treatment were performed by plating about 2,000 p21-9 cells per 10 cm culture dish in DMEM/10% FCS and the presence or absence of IPTG. Cells were allowed to form colonies for 10 days before their clonogenic capacity was determined. p12-9 cells were treated with three concentrations of IPTG: 0.5 μM, 5 μM and 50 μM. […] In contrast, continuous exposure of the cells to 5 μM or 50 μM IPTG reduced the clonogenicity of p2l-9 cells by 80% and 100%, respectively.
Expression of 69 of these genes was individually tested by RT-PCR or northern hybridization with probes derived from inserts of the cDNA clones present in the microarray; these cDNAs were obtained from Genome Systems, Inc. In addition, enzyme-linked immunosorbent assay (ELISA) measurement of p21 protein was carried out using WAF1 ELISA kit (obtained from Oncogene Science, Uniondale, N.Y.) as described (Chang et al., 1999, Oncogene 18: 4808-4818). The following primary antibodies were used for immunoblotting: mouse monoclonal antibodies against Cdc2 (Santa Cruz), cyclin A (NeoMarkers), Plk 1 (Zymed) and Rb (PharMingen); rabbit polyclonal antibodies against MAD2 (BadCo), p107 (Santa Cruz), CTGF (Fisp-12; a gift of Dr. L. Lau), Prc 1 (a gift of Drs. W. Jiang and T. Hunter), and topoisomerase IIα (Ab0284; a gift of Dr. W. T. Beck), and sheep polyclonal antibody against. SOD2 (Calbiochem). Horse radish peroxidase (HRP)-conjugated secondary antibodies used were goat anti-mouse and goat anti-rabbit. IgG (Santa:Cruz) and rabbit anti-sheep IgG (KPL). Protein concentrations in all samples were equalized after measurement with BioRad-protein assay kit. Immunoblotting was carried out by standard procedures, and the signal was detected by chemiluminescence using LumiGlo (KPL).

p21-9 cells [1] = experiment: Morphology of mitotic figures after release from IPTG; format: cell-based, human; details: 1-2 days after release
Method: (§3) The mitogenic index was determined by observing cells microscopically and calculating the number of cells in mitosis after staining with 5 μg/mL 4,6-diamino-2-phenylindole (DAPI), and images were collected using a Leica DMIRB fluorescence microscope and Vaytek (Fairfield, Iowa) imaging system. Microscopically-detectable mitotic cells disappeared from these cultures in the presence of IPTG in two stages: the first occurring between 0-4 hours after IPTG addition (wherein the mitotic index dropped from about 15% in untreated cells to about 5% in IPTG-treated cells) and then again between about 10-14 hours after IPTG addition (wherein the mitotic index dropped to zero at about 13 hours after IPTG addition (FIG. 3B).
A major difference between cells that were inhibited by IPTG for one day compared with those inhibited for S days emerged, however, when the morphology of attached mitotic cells arising 1-2 days after release from IPTG was examined. […] The percentage of normal mitoses in 1-day and 5-day IPTG treated cells were 45% and 2%, respectively, which is close to the corresponding values for clonogenic recovery (38% and 1%).

HS 15.T cells = experiment: Mitogenic activity assay (3H-thymidine incorporation); format: cell-based, human; details: media supplemented with 1% or 2% FCS; 60 hr then 24 hrs label
Method: as §1
The slow-growing human fibrosarcoma cell line HS 15.T was used to detect mitogenic activity in these conditioned media. For mitogenic activity assays, both types of conditioned media, as well as fresh media and 1:1 mixtures of conditioned media and fresh media were used to test mitogenic activity. In these experiments, the conditioned media were supplemented with 1% or 2% FCS. Briefly, HS 15.T cells were plated in 12-well plates at 15,000 cells per well. Two days later, these cells were cultured in different types of media. […] Cells were then collected and their ^3H-thymidine incorporation determined as described by Mosca et al. (1992, Mol. Cell. Biol. 12: 4375-4383).

p21-9 cells [2] = experiment: Colony assay for recovery from IPTG treatment; format: cell-based, human; details: for decreased clonogenicity: 3-5 days treatment; for reduction of clonogenicity: continuous exposure
Method: as §2

p21-9 cells [3] = experiment: Mitotic index (microscopy after DAPI staining) in p21-9 cells; format: cell-based, human
Method: (§4) Cell growth in the presence of IPTG was assayed in three ways: measuring ^3H-thymidine incorporation (termed the “labeling index”); observing the number of mitotic cells in the culture by microscopy (termed the “mitotic index”) and determining the distribution of the culture cells in different portions of the cell cycle (termed the “cell cycle distribution”).
as §3

p21-9 cells [4] = experiment: Cell cycle distribution (FACS, propidium iodide) in p21-9 cells; format: cell-based, human; details: after 24 hrs of 50 μM IPTG
Method: as §4
Cell cycle distribution was determined using FACS analysis of DNA content after staining with propidium iodide as described by Jordan et al. (1996, Cancer Res. 56: 816-825) using Becton Dickinson FACSort. By this time, 42-43% of IPTG-treated cells were arrested in G1 and G2, respectively, and about 15% of the cells were arrested with S-phase DNA content.

p21-9 cells [5] = experiment: 3H-thymidine labeling index (autoradiography) in p21-9 cells; format: cell-based, human
Method: as §4
^3H-thymidine incorporation assays were performed substantially as described by Dimri et al. (1995, Proc. Natl. Acad. Sci. USA 92: 9363-9367). Cells were cultured in the presence of ^3H-thymidine for 3h, and then analyzed by autoradiography. DNA replication as determined by autoradiography ceased entirely by 9 hours after addition of IPTG to the culture media (FIG. 3A).

## CC(C)S[C@@H]1O[C@H](CO)[C@H](O)[C@H](O)[C@H]1O [IPTG, isopropyl-β-thiogalactoside]
C8 cells
  effect on apoptosis in C8 cells: no effect on apoptosis
p21; 0.5 μM IPTG
  increase in p21 gene expression: no measurable increase over basal p21 levels
p21; 5 μM IPTG
  increase in p21 gene expression: half-maximal
p21; 50 μM IPTG
  increase in p21 gene expression: maximal increase
  time of peak p21 expression post-induction: about 24 hours
p21; IPTG-treated p21-9 cells, 50 μM IPTG
  increase in p21 levels: 15-20 fold
p21-9 cells [1]; 1-day IPTG treatment
  percentage of normal mitoses: 45%
p21-9 cells [1]; 5-day IPTG treatment
  percentage of normal mitoses: 2%
HS 15.T cells
  effect on 3H-thymidine incorporation by HS 15.T cells: no effect
p21-9 cells [2]; 0.5 μM IPTG
  colony formation: did not inhibit colony formation
p21-9 cells [2]; 5 μM IPTG removed after 12 or 14 hours
  colony formation: substantially undiminished colony formation
p21-9 cells [2]; 5 μM IPTG
  decreased clonogenicity: 55-58%
  reduction of clonogenicity: 80%
p21-9 cells [2]; 50 μM IPTG removed after 12 or 14 hours
  decrease in clonogenicity: 58-63%
p21-9 cells [2]; 50 μM IPTG
  decreased clonogenicity: 95-99%
  reduction of clonogenicity: 100%
p21-9 cells [3]; 0-4 hours after addition of 50 μM IPTG, about 15% in untreated cells
  mitotic index: about 5%
p21-9 cells [3]; 50 μM IPTG
  time at which mitotic index dropped to zero after IPTG addition: about 13 hours
p21-9 cells [3]; after removal of 50 μM IPTG
  time to resumption of mitosis after IPTG release: about 30 hours
p21-9 cells [4]
  cells arrested in G1 and G2, respectively: 42-43%
  cells arrested with S-phase DNA content: about 15%
p21-9 cells [5]; 50 μM IPTG
  time to complete cessation of DNA replication after addition of IPTG: ≤ 9 h
p21-9 cells [5]; after removal of 50 μM IPTG
  time to resumption of DNA replication after release from IPTG: about 20 hours
